According to US12410160B2 (Gilead Sciences, Inc., priority 2021, dated 2025):

Assays:
[1] = biological target: human KHK-A (Homo sapiens (Human), UniProt P50053); assay: KHK Biochemical Assay (IC50), ADP-Glo, KHK-A; details: average of at least two separate assays
Protocol: (§1) The His-tagged fusion protein was expressed using BL21 (DE3) with IPTG induction and purified using Ni-NTA column followed by dialysis into final buffer containing 25 mM Tris-HCl pH 8.0, 250 mM NaCl.
(§2) KHK Biochemical Assay (IC50)
(§3) Compounds were tested for KHK enzyme inhibition in a high-throughput 384-well assay format using the ADP-Glo assay (Promega) in buffer consisting of 50 mM Hepes (pH 7.4), 140 mM KCl, 5 mM MgCl2 and 0.01% Triton-X. 0.2 nM. […] Compounds were serially diluted (1:3) in DMSO.
(§4) The compounds were pre-incubated with 5 μL of 2× final enzyme concentration for 30 minutes before adding 5 μL of 2× final concentration of ATP and fructose. The plates were incubated at room temperature for 4 hours before adding ADP-Glo reagent to quench the enzyme reaction, followed by incubation at room temperature for 1 hour. The ADP-Glo detection reagent was then added to the plates and luminescence was measured on the Envision plate reader after 1 hour.

[2] = biological target: human KHK-C (Homo sapiens (Human), UniProt P50053); assay: KHK Biochemical Assay (IC50), ADP-Glo, KHK-C; details: average of at least two separate assays
Chain of human KHK-C (P50053 whole entry): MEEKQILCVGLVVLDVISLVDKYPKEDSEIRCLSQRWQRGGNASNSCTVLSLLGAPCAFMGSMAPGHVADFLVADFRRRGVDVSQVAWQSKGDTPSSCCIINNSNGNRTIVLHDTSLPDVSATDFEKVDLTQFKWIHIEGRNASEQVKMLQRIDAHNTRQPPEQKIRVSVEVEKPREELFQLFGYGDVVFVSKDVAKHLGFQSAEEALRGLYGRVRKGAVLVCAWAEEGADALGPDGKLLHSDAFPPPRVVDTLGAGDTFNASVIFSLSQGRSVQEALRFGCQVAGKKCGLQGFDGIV
Protocol: as §1, §2, §3, §4

Chain of human KHK-A (P50053 other isoform, or with tags, fused parts or gaps): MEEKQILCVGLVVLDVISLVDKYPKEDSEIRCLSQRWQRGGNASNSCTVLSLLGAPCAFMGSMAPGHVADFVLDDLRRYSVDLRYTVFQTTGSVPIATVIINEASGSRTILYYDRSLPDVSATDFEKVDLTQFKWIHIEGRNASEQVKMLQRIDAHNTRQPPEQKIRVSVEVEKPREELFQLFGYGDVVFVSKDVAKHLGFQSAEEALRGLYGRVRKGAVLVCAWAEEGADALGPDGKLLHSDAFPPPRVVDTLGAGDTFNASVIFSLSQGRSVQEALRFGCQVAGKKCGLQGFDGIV

Row | Compound | IC50 ([1]; ADP-Glo) [nM] | IC50 ([2]; ADP-Glo) [nM] | IC50 [1] [nM] | IC50 [2] [nM]
1 | 2-[(2S)-2-methylazetidin-1-yl]-4-(3-methylimidazol-4-yl)-6,7-dihydro-5H-cyclopenta[d]pyrimidine [Example 341] | 133 | 111 |  | 
2 | 3-(24(2S,3R)-3-fluoro-2-methylazetidin-1-yl)-6,8-dihydro-5H-pyrano[3,4-d]pyrimidin-4-yl)benzenesulfonamide [Example 287] | 696 | 1270 |  | 
3 | C[C@H]1CCN1c1nc2c(c(-c3cccc(C(=O)N[C@H]4CC[C@@H]4O)c3)n1)CCC2 (racemic) [Example 59, N-((18*,28*)-2-hydroxycyclobutyl)-3-(2-((8)-2-methylazetidin-1-yl)-6,7-dihydro-5H-cyclopenta[d]pyrimidin-4-yl)benzamide] | 42.9 | 171 |  | 
4 | C[C@H]1CCN1c1nc2c(c(-c3cccc(C(=O)N[C@H]4CC[C@H]4O)c3)n1)CCC2 (racemic) [Example 60, N-((18*,2R*)-2-hydroxycyclobutyl)-3-(2-((8)-2-methylazetidin-1-yl)-6,7-dihydro-5H-cyclopenta[d]pyrimidin-4-yl)benzamide] | 61.6 | 119 |  | 
5 | NS(=O)(=O)c1cccc(-c2nc(N3CC4CCCC43)nc3c2CCC3)c1 (racemic) [Example 79, (rac)-3-(2-(6-azabicyclo[3.2.0]heptan-6-yl)-6,7-dihydro-5H-cyclopenta[d]pyrimidin-4-yl)benzenesulfonamide] | 6960 | 4990 |  | 
6 | NC1(c2ccc(-c3nc(N4CC[C@H]4C(F)F)nc4c3CCC4(F)F)cc2)COC1 (single isomer, unassigned) [Example 688] |  |  | 96.5 | 59.6
7 | COC(=O)CCc1cccc(-c2nc(N3CC[C@@H]3C)nc3c2CCC3)c1 [Example 1, methyl (S)-3-(3-(2-(2-methylazetidin-1-yl)-6,7-dihydro-5H cyclopenta[d]pyrimidin-4-yl)phenyl)propanoate] | 952 | 689 |  | 
8 | COC(=O)CCc1ccccc1-c1nc(N2CC[C@@H]2C)nc2c1CCC2 [Example 2, methyl (S)-3-(2-(2-(2-methylazetidin-1-yl)-6,7-dihydro-5H-cyclopenta[d]pyrimidin-4-yl)phenyl)propanoate] | 31000 | 30800 |  | 
9 | COC(=O)Cc1cccc(-c2nc(N3CC[C@@H]3C)nc3c2CCC3)c1 [Example 3, methyl (S)-2-(3-(2-(2-methylazetidin-1-yl)-6,7-dihydro-5H-cyclopenta[d]pyrimidin-4-yl)phenyl)acetate] | 121 | 122 |  | 
10 | C[C@H]1CCN1c1nc2c(c(-c3ccccc3CCC(=O)O)n1)CCC2 [Example 5, (S)-3-(2-(2-(2-methylazetidin-1-yl)-6,7-dihydro-5H-cyclopenta[d]pyrimidin-4-yl)phenyl)propanoic acid] | 5920 | 7900 |  | 
11 | C[C@H]1CCN1c1nc2c(c(-c3cccc(CC(=O)O)c3)n1)CCC2 [Example 6, (S)-2-(3-(2-(2-methylazetidin-1-yl)-6,7-dihydro-5H-cyclopenta[d]pyrimidin-4-yl)phenyl)acetic acid] | 285 | 243 |  | 
12 | C[C@H]1CCN1c1nc2c(c(-c3cccc(C#N)c3)n1)CCC2 [Example 7, (S)-3-(2-(2-methylazetidin-1-yl)-6,7-dihydro-5H-cyclopenta[d]pyrimidin-4-yl)benzonitrile] | 439 | 373 |  | 
13 | C[C@H]1CCN1c1nc2c(c(-c3ccccc3)n1)CCOC2 [Example 10, (S)-2-(2-methylazetidin-1-yl)-4-phenyl-5,8-dihydro-6H-pyrano[3,4-d]pyrimidine] | 1150 | 1140 |  | 
14 | C[C@H]1CCN1c1nc(-c2ccccc2)c2c(cnn2C)n1 [Example 11, (S)-1-methyl-5-(2-methylazetidin-1-yl)-7-phenyl-1H-pyrazolo[4,3-d]pyrimidine] | 453 | 408 |  | 
15 | C[C@H]1CCN1c1nc(-c2ccccc2)c2occc2n1 [Example 12, (S)-2-(2-methylazetidin-1-yl)-4-phenylfuro[3,2-d]pyrimidine] | 2620 | 2600 |  | 
16 | C[C@H]1CCN1c1nc2c(c(-c3ccn(CCC(=O)O)n3)n1)CCC2 [Example 24, (S)-3-(3-(2-(2-methylazetidin-1-yl)-6,7-dihydro-5H-cyclopenta[d]pyrimidin-4-yl)-1H-pyrazol-1-yl)propanoic acid] | 615 | 420 |  | 
17 | C[C@H]1CCN1c1nc2c(c(-c3cnn(CCC(=O)O)c3)n1)CCC2 [Example 25, (S)-3-(4-(2-(2-methylazetidin-1-yl)-6,7-dihydro-5H-cyclopenta[d]pyrimidin-4-yl)-1H-pyrazol-1-yl)propanoic acid] | 142 | 104 |  | 
18 | C[C@H]1CCN1c1nc(-c2ccccc2)c2ncsc2n1 [Example 26, (S)-5-(2-methylazetidin-1-yl)-7-phenylthiazolo[5,4-d]pyrimidine] | 1860 | 1540 |  | 
19 | C[C@H]1CCN1c1nc2c(c(-c3ccccc3)n1)CC(C1CC1)C2 (stereo partly drawn) [Example 30, 6-cyclopropyl-2-((S)-2-methylazetidin-1-yl)-4-phenyl-6,7-dihydro-5H-cyclopenta[d]pyrimidine] | > 50000 | > 50000 |  | 

Further lines, results first:

Row | IC50 ([1]; ADP-Glo) [nM] | IC50 ([2]; ADP-Glo) [nM] | IC50 [1] [nM] | IC50 [2] [nM] | Compound
20 | 1910 | 2170 |  |  | C[C@H]1CCN1c1nc(-c2ccccc2)c2c(n1)C1CC1C2 (mixture of isomers) [Example 332, 9-[(2S)-2-methylazetidin-1-yl]-7-phenyl-8,10-diazatricyclo[4.4.0.02,4]deca-1(10),6,8-triene]
21 | 865 | 957 |  |  | NS(=O)(=O)c1cccc(-c2nc(N3CC[C@@H]4[C@H](O)C[C@@H]43)nc3c2CCC3)c1 (racemic) [Example 80, (rac)-3-(2-((1S*,5S*,6R*)-6-hydroxy-2-azabicyclo[3.2.0]heptan-2-yl)-6,7-dihydro-5H-cyclopenta[d]pyrimidin-4-yl)benzenesulfonamide]
22 | 18.2 | 13.2 |  |  | C[C@H]1[C@H](O)CN1c1nc2c(c(-c3cccc([C@H]4C[C@@H]4C(=O)O)c3)n1)CCC2 (single isomer, unassigned) [Example 113]
23 | 51 | 46.2 |  |  | C[C@H]1[C@H](O)CN1c1nc2c(c(-c3cccc([C@@H]4C[C@H]4C(=O)O)c3)n1)CCC2 (single isomer, unassigned) [Example 114]
24 | 9270 | 9700 |  |  | C[C@H]1CCN1c1nc(-c2ccccc2)c2c(n1)[C@H]1C[C@H]1C2 (single isomer, unassigned) [Example 334]
25 |  |  | 26.4 | 12 | C[C@H]1[C@H](O)CN1c1nc(-c2ccc3c(c2)OC[C@]32COC(=O)N2)c2c(n1)C(F)(F)CC2 (single isomer, unassigned) [Example 482]
26 |  |  | 18.9 | 1.2 | C[C@H]1[C@H](O)CN1c1nc(-c2ccc3c(c2)OC[C@]32COCC(=O)N2)c2c(n1)C(F)(F)CC2 (single isomer, unassigned) [Example 498]
27 |  |  | 6.2 | 10.6 | C[C@H]1[C@H](O)CN1c1nc(-c2ccc(OC3CC3)c([S@](C)(=N)=O)c2)c2c(n1)C(F)(F)CC2 (single isomer, unassigned) [Example 543]
28 |  |  | 75.2 | 16.2 | CC1OC[C@]2(COc3cc(-c4nc(N5C[C@@H](O)[C@@H]5C)nc5c4CCC5(F)F)ccc32)NC1=O (single isomer, unassigned) [Example 560]
29 |  |  | 65 | 44.3 | C[C@H]1[C@H](O)CN1c1nc(-c2ccc3c(c2)OC[C@@]32NC(=O)OC2(C)C)c2c(n1)C(F)(F)CC2 (single isomer, unassigned) [Example 567]
30 |  |  | 10.8 | 0.9 | C[C@H]1[C@H](O)CN1c1nc(-c2ccc3c(c2)C(F)(F)C[C@@H]3NS(C)(=O)=O)c2c(n1)C(F)(F)CC2 (single isomer, unassigned) [Example 634]
31 |  |  | 2.3 | 0.1 | C[C@H]1[C@H](F)CN1c1nc(-c2ccc3c(c2)S(=O)(=O)C[C@@H]3NS(C)(=O)=O)c2c(n1)C(F)(F)CC2 (single isomer, unassigned) [Example 679]
32 | 7.8 | 1.3 |  |  | NC1(c2ccc(-c3nc(N4CC[C@@H]4C(F)F)nc4c3CCC4(F)F)cc2)CS(=O)(=O)C1 (single isomer, unassigned) [Example 800]
33 | > 100 | 52.2 |  |  | NC1(c2ccc(-c3nc(N4CC[C@H]4C(F)F)nc4c3CCC4(F)F)cc2)CS(=O)(=O)C1 (single isomer, unassigned) [Example 801]
34 | > 100 | 24.2 |  |  | C[C@H]1[C@H](O)CN1c1nc(-c2cnc3c(c2)OC[C@H]3NS(C)(=O)=O)c2c(n1)C(F)(F)CC2 (single isomer, unassigned) [Example 822]
35 | > 100 | 11.8 |  |  | C[C@H]1[C@H](O)CN1c1nc(-c2ccc3c(c2)OC[C@]32NC(=O)N(C)C2=O)c2c(n1)C(F)(F)CC2 (single isomer, unassigned) [Example 827]
36 | 99.8 | 4 |  |  | COC(=O)N[C@@H]1COc2cc(-c3nc(N4C[C@@H](O)[C@@H]4C)nc4c3CCC4(F)F)cc(OC)c21 (single isomer, unassigned) [Example 833]
37 | 56.8 | 17.8 |  |  | COC(=O)N[C@H]1COc2cc(-c3nc(N4C[C@@H](O)[C@@H]4C)nc4c3CCC4(F)F)cc(OC)c21 (single isomer, unassigned) [Example 834]
